Assay: refractive index (Na D-line) (dimensionless); xn = mol fraction of the nth substance listed
Conditions: 101 kPa, Liquid, Standard Abbe refractometry

C1CCOCC1 [tetrahydropyran] + CC(C)O
Conditions	refractive index
293.15 K, x2 = 0	1.39161
293.15 K, x2 = 0.0501	1.39085
293.15 K, x2 = 0.0999	1.3902
293.15 K, x2 = 0.1499	1.38954
293.15 K, x2 = 0.2003	1.38897
293.15 K, x2 = 0.2506	1.38839
293.15 K, x2 = 0.2999	1.38777
293.15 K, x2 = 0.35	1.38719
293.15 K, x2 = 0.3999	1.3866
293.15 K, x2 = 0.4499	1.38599
293.15 K, x2 = 0.5001	1.38539
293.15 K, x2 = 0.5502	1.38478
293.15 K, x2 = 0.6001	1.38415
293.15 K, x2 = 0.6499	1.38347
293.15 K, x2 = 0.7001	1.3827
293.15 K, x2 = 0.7499	1.38194
293.15 K, x2 = 0.8	1.38113
293.15 K, x2 = 0.8501	1.38021
293.15 K, x2 = 0.9001	1.37932
293.15 K, x2 = 0.9499	1.37832
303.15 K, x2 = 0	1.3866
303.15 K, x2 = 0.0502	1.38571
303.15 K, x2 = 0.1001	1.38505
303.15 K, x2 = 0.1501	1.38441
303.15 K, x2 = 0.1998	1.38377
303.15 K, x2 = 0.2499	1.3832
303.15 K, x2 = 0.3	1.38259
303.15 K, x2 = 0.3499	1.38201
303.15 K, x2 = 0.4001	1.38144
303.15 K, x2 = 0.4501	1.38087
303.15 K, x2 = 0.5001	1.38026
303.15 K, x2 = 0.55	1.37965
303.15 K, x2 = 0.6	1.37903
303.15 K, x2 = 0.65	1.37841
303.15 K, x2 = 0.6999	1.37775
303.15 K, x2 = 0.7499	1.37704
303.15 K, x2 = 0.8001	1.37633
303.15 K, x2 = 0.85	1.37553
303.15 K, x2 = 0.8998	1.37469
303.15 K, x2 = 0.9499	1.3738
313.15 K, x2 = 0	1.38143
313.15 K, x2 = 0.05	1.38065
313.15 K, x2 = 0.1	1.37995
313.15 K, x2 = 0.1501	1.37929
313.15 K, x2 = 0.2	1.37868
313.15 K, x2 = 0.2499	1.37807
313.15 K, x2 = 0.2997	1.37748
313.15 K, x2 = 0.3499	1.37692
313.15 K, x2 = 0.4	1.37632
313.15 K, x2 = 0.4504	1.37573
313.15 K, x2 = 0.5001	1.37513
313.15 K, x2 = 0.55	1.37457
313.15 K, x2 = 0.5999	1.37399
313.15 K, x2 = 0.65	1.37339
313.15 K, x2 = 0.7001	1.3728
313.15 K, x2 = 0.7502	1.37216
313.15 K, x2 = 0.7999	1.37151
313.15 K, x2 = 0.85	1.37081
313.15 K, x2 = 0.8998	1.37005
313.15 K, x2 = 0.9498	1.36931
323.15 K, x2 = 0	1.37627
323.15 K, x2 = 0.05	1.3752
323.15 K, x2 = 0.1	1.37442
323.15 K, x2 = 0.1501	1.37378
323.15 K, x2 = 0.2	1.37312
323.15 K, x2 = 0.2499	1.37252
323.15 K, x2 = 0.2997	1.37192
323.15 K, x2 = 0.3499	1.37127
323.15 K, x2 = 0.4	1.37072
323.15 K, x2 = 0.4504	1.37012
323.15 K, x2 = 0.5001	1.3695
323.15 K, x2 = 0.5501	1.36901
323.15 K, x2 = 0.6	1.36843
323.15 K, x2 = 0.65	1.36789
323.15 K, x2 = 0.6999	1.36729
323.15 K, x2 = 0.7502	1.36664
323.15 K, x2 = 0.8002	1.36608
323.15 K, x2 = 0.8501	1.36542
323.15 K, x2 = 0.8998	1.36485
323.15 K, x2 = 0.9501	1.3642

From the NIST ThermoML archive (doi:10.1016/j.jct.2010.08.019)
